The source of these data is ChEMBL document CHEMBL1143710, “Synthesis, antifungal and antimicrobial activity of alkylphospholipids” (Bioorg Med Chem, 2007).

Series [1] deals with T1, Phospholipase B (Cryptococcus neoformans) (UniProt Q9P8P2).
T1 sequence (whole entry): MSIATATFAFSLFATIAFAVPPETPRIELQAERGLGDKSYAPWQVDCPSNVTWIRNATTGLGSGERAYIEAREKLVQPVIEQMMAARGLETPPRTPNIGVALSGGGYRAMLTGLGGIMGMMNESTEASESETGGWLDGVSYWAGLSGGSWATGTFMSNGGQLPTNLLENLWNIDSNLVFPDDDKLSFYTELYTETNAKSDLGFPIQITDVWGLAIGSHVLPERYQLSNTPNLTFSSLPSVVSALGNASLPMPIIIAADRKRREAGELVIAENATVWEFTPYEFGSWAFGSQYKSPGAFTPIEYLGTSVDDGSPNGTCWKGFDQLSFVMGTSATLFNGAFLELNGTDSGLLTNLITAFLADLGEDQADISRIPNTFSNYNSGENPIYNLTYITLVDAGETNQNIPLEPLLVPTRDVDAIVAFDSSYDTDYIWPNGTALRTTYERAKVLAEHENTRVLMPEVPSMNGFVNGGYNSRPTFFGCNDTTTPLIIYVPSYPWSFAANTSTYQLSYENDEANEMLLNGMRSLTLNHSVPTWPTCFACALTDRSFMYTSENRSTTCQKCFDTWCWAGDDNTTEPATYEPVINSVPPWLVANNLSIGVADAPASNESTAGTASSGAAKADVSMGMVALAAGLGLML
The series can be described thus: Inhibition of lysophosphatidic acid acyltransferase activity of Cryptococcus neoformans var. grubi H99 secreted PLB1 at 25 uM by radiometric assay method.

The next series has as its system Candida albicans. Nature of the series: Antifungal activity against Candida albicans ATCC 10231. The class given is functional.
Series [2] concerns the target T1, Phospholipase B (Cryptococcus neoformans). Nature of the series: Inhibition of […] activity of Cryptococcus neoformans var. grubi H99 secreted PLB1 at 25 uM by radiometric assay method.
Series [3] deals with Staphylococcus aureus. The series can be described thus: Antibacterial activity against methicillin-resistant Staphylococcus aureus after 24 hrs. The class given is functional.
The test system of series [4] is Staphylococcus aureus. The series can be described thus: Antibacterial activity against Staphylococcus aureus ATCC 25923 after 24 hrs. The class given is functional. As to conditions: ATCC 25923, 24 h.
Another series deals with Pseudomonas aeruginosa. The series can be described thus: Antibacterial activity against Pseudomonas aeruginosa ATCC 27853 after 24 hrs. The class given is functional. The conditions noted are these: ATCC 27853, 24 h.
The test system of another series is Escherichia coli. Nature of the series: Antibacterial activity against Escherichia coli ATCC 25922 after 24 hrs. In kind it is functional. As to conditions: ATCC 25922, 24 h.
Another series concerns Enterococcus. The series can be described thus: Antibacterial activity against vancomycin-resistant Enterococcus ATCC 51299 after 24 hrs. In kind it is functional. As to conditions: ATCC 51299, 24 h.
In a further series the test system is Streptococcus pneumoniae. Nature of the series: Antibacterial activity against Streptococcus pneumoniae ATCC 46919 after 24 hrs. In kind it is functional. The conditions noted are these: ATCC 46919, 24 h.
Series [5] can be described thus: Toxicity assessed as haemolytic activity against human erythrocytes at 3.5 uM. The class given is cell-based, Erythrocyte. The conditions noted are these: read-out: Activity.
Series [6] in a line: Toxicity assessed as haemolytic activity against human erythrocytes at 350 uM. In kind it is cell-based, Erythrocyte. The conditions noted are these: read-out: Activity.
The nature of series [7]: Toxicity assessed as haemolytic activity against human erythrocytes at 88 uM. The class given is cell-based, Erythrocyte. The conditions noted are these: read-out: Activity.
The nature of series [8]: Toxicity assessed as haemolytic activity against human erythrocytes at 44 uM. The class given is cell-based, Erythrocyte. As to conditions: read-out: Activity.
Series [9] concerns the target T1, Phospholipase B (Cryptococcus neoformans). Nature of the series: Inhibition of […] activity of Cryptococcus neoformans var. grubi H99 secreted PLB1 at 250 uM by radiometric assay method.
Series [10] in a line: Toxicity assessed as haemolytic activity against human erythrocytes at 17.5 uM. In kind it is cell-based, Erythrocyte. The conditions noted are these: read-out: Activity.
For the next series, the system named is Cryptococcus neoformans. Nature of the series: Antifungal activity against Cryptococcus neoformans ATCC 90112. In kind it is functional.
Series [11] is described as follows: Toxicity assessed as haemolytic activity against human erythrocytes at 175 uM. The class given is cell-based, Erythrocyte. The conditions noted are these: read-out: Activity.
For series [12], the target named is T1, Phospholipase B (Cryptococcus neoformans). Nature of the series: Inhibition of lysophosphatidic acid acyltransferase activity of Cryptococcus neoformans var. grubi H99 secreted PLB1 at 250 uM by radiometric assay method.

≈ marks a conversion by molar mass, not a printed value. Calls of active or inactive are those of the source. The calls are words filed in the database; no cut-off is given here.

By MIC is commonly meant the lowest concentration found to suppress growth. A higher MIC goes with a less susceptible organism. On to `CCCCCCCCCCCCCCCCOP(=O)([O-])OCC[N+](C)(C)C` [MILTEFOSINE], for which the result in [1], in series [9] and in series [12] was Active. Further, the MIC against Candida albicans was 5.5 µM (≈ 2.24 µg/mL); against Staphylococcus aureus [3], 22 µM (≈ 8.97 µg/mL); against Staphylococcus aureus [4] it was 44 µM (≈ 17.9 µg/mL); against Pseudomonas aeruginosa, over 600 µM; with Escherichia coli, over 350 µM; in the series with Enterococcus it was 44 µM (≈ 17.9 µg/mL). In addition, the figures for the MIC against Streptococcus pneumoniae and in the series with Cryptococcus neoformans were 11 µM (≈ 4.48 µg/mL) and 2.75 µM (≈ 1.12 µg/mL), respectively. Also, in series [2], the outcome was inactive. For the same molecule, the hemolysis at 3.5 µM in [5] is 0%. Further, the hemolysis at 350 µM in [6] was found to be 100%. Besides, the hemolysis at 88 µM in series [7] amounted to 25%. Besides, the hemolysis at 44 µM in series [8] came out at 5%. The hemolysis at 17.5 µM in [10] was 0%. Also, the hemolysis at 175 µM in [11] was found to be 95%.
